In the supplement of paper PMC10307832:

Key:
Assay in all cases: relative viability (nuclei count vs DMSO), 5 days (fraction); higher = more cells survive
Bexarotene = compound: C=C(c1ccc(C(=O)O)cc1)c1cc2c(cc1C)C(C)(C)CCC2(C)C [Bexarotene]
Procedure, shortened: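 Viability was read as treated-well nuclei divided by vehicle-well nuclei, using the median across plates. Lung cancer cell lines in 1536-well plates were kept overnight at 37 °C, pinned with five √10-spaced library-drug doses, and after 5 days were Hoechst-stained, imaged at 4× and counted in MetaXpress. Plates passed only with control CV below 25% and at least one doubling.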

Bexarotene + Foretinib = compound: C=C(c1ccc(C(=O)O)cc1)c1cc2c(cc1C)C(C)(C)CCC2(C)C [Bexarotene] + COc1cc2c(Oc3ccc(NC(=O)C4(C(=O)Nc5ccc(F)cc5)CC4)cc3F)ccnc2cc1OCCCN1CCOCC1 [Foretinib] (partner 0.25 µM)
Procedure, shortened: (§1)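 Nuclei were stained with Hoechst during a one-step fixation (final 0.05% Triton X-100, 1% formaldehyde, 1 ug/ml Hoechst) carried out 5 days after dosing, then counted on 4× images. The cells, lung cancer lines in 1536-well plates, had been dosed by pin tool the day after seeding with one drug alone or a fixed anchor-drug dose plus five library-drug doses (not always all listed) in √10 steps. Relative viability is the nuclei count in treated wells divided by that in vehicle wells, and each value is the median of duplicate plates.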

Bexarotene + Pictilisib = compound: C=C(c1ccc(C(=O)O)cc1)c1cc2c(cc1C)C(C)(C)CCC2(C)C [Bexarotene] + CS(=O)(=O)N1CCN(Cc2cc3nc(-c4cccc5[nH]ncc45)nc(N4CCOCC4)c3s2)CC1 [Pictilisib] (partner 1 µM)
Procedure, shortened: as §1

Bexarotene + Olaparib = compound: C=C(c1ccc(C(=O)O)cc1)c1cc2c(cc1C)C(C)(C)CCC2(C)C [Bexarotene] + O=C(c1cc(Cc2n[nH]c(=O)c3ccccc23)ccc1F)N1CCN(C(=O)C2CC2)CC1 [Olaparib] (partner 8 µM)
Procedure, shortened: as §1

Bexarotene + Lapatinib = compound: C=C(c1ccc(C(=O)O)cc1)c1cc2c(cc1C)C(C)(C)CCC2(C)C [Bexarotene] + CS(=O)(=O)CCNCc1ccc(-c2ccc3ncnc(Nc4ccc(OCc5cccc(F)c5)c(Cl)c4)c3c2)o1 [Lapatinib] (partner 2 µM)
Procedure, shortened: as §1

Bexarotene + Linsitinib = compound: C=C(c1ccc(C(=O)O)cc1)c1cc2c(cc1C)C(C)(C)CCC2(C)C [Bexarotene] + C[C@]1(O)C[C@@H](c2nc(-c3ccc4ccc(-c5ccccc5)nc4c3)c3c(N)nccn32)C1 [Linsitinib] (partner 1 µM)
Procedure, shortened: as §1

Bexarotene + Crizotinib = compound: C=C(c1ccc(C(=O)O)cc1)c1cc2c(cc1C)C(C)(C)CCC2(C)C [Bexarotene] + C[C@@H](Oc1cc(-c2cnn(C3CCNCC3)c2)cnc1N)c1c(Cl)ccc(F)c1Cl [Crizotinib] (partner 1 µM)
Procedure, shortened: as §1

Bexarotene + Bortezomib = compound: C=C(c1ccc(C(=O)O)cc1)c1cc2c(cc1C)C(C)(C)CCC2(C)C [Bexarotene] + CC(C)C[C@H](NC(=O)[C@H](Cc1ccccc1)NC(=O)c1cnccn1)B(O)O [Bortezomib] (partner 0.002 µM)
Procedure, shortened: as §1

Bexarotene + Alpelisib = compound: C=C(c1ccc(C(=O)O)cc1)c1cc2c(cc1C)C(C)(C)CCC2(C)C [Bexarotene] + Cc1nc(NC(=O)N2CCC[C@H]2C(N)=O)sc1-c1ccnc(C(C)(C)C(F)(F)F)c1 [Alpelisib] (partner 2 µM)
Procedure, shortened: as §1

Bexarotene + Navitoclax = compound: C=C(c1ccc(C(=O)O)cc1)c1cc2c(cc1C)C(C)(C)CCC2(C)C [Bexarotene] + CC1(C)CCC(c2ccc(Cl)cc2)=C(CN2CCN(c3ccc(C(=O)NS(=O)(=O)c4ccc(N[C@H](CCN5CCOCC5)CSc5ccccc5)c(S(=O)(=O)C(F)(F)F)c4)cc3)CC2)C1 [Navitoclax] (partner 0.5 µM)
Procedure, shortened: as §1

## NCI-H1299
Bexarotene; 0.08 µM
  relative viability: 1.01
Bexarotene; 0.253 µM
  relative viability: 1.12
Bexarotene; 0.8 µM
  relative viability: 1.06
Bexarotene; 2.53 µM
  relative viability: 1.01
Bexarotene; 8 µM
  relative viability: 1.02
Bexarotene + Foretinib; first compound 0.08 µM
  relative viability: 1.06
Bexarotene + Foretinib; first compound 0.253 µM
  relative viability: 1.18
Bexarotene + Foretinib; first compound 0.8 µM
  relative viability: 1.05
Bexarotene + Foretinib; first compound 2.53 µM
  relative viability: 1.1
Bexarotene + Foretinib; first compound 8 µM
  relative viability: 1.08
Bexarotene + Pictilisib; first compound 0.08 µM
  relative viability: 0.954
Bexarotene + Pictilisib; first compound 0.253 µM
  relative viability: 0.893
Bexarotene + Pictilisib; first compound 0.8 µM
  relative viability: 0.661
Bexarotene + Pictilisib; first compound 2.53 µM
  relative viability: 0.733
Bexarotene + Pictilisib; first compound 8 µM
  relative viability: 0.596
Bexarotene + Olaparib; first compound 0.08 µM
  relative viability: 0.951
Bexarotene + Olaparib; first compound 0.253 µM
  relative viability: 0.967
Bexarotene + Olaparib; first compound 0.8 µM
  relative viability: 0.917
Bexarotene + Olaparib; first compound 2.53 µM
  relative viability: 0.882
Bexarotene + Olaparib; first compound 8 µM
  relative viability: 0.895
Bexarotene + Lapatinib; first compound 0.08 µM
  relative viability: 1.02
Bexarotene + Lapatinib; first compound 0.253 µM
  relative viability: 1.03
Bexarotene + Lapatinib; first compound 0.8 µM
  relative viability: 1.04
Bexarotene + Lapatinib; first compound 2.53 µM
  relative viability: 0.917
Bexarotene + Lapatinib; first compound 8 µM
  relative viability: 0.964
Bexarotene + Linsitinib; first compound 0.08 µM
  relative viability: 1.02
Bexarotene + Linsitinib; first compound 0.253 µM
  relative viability: 1.01
Bexarotene + Linsitinib; first compound 0.8 µM
  relative viability: 0.991
Bexarotene + Linsitinib; first compound 2.53 µM
  relative viability: 1.02
Bexarotene + Linsitinib; first compound 8 µM
  relative viability: 0.94
Bexarotene + Crizotinib; first compound 0.08 µM
  relative viability: 1
Bexarotene + Crizotinib; first compound 0.253 µM
  relative viability: 1.03
Bexarotene + Crizotinib; first compound 0.8 µM
  relative viability: 1.03
Bexarotene + Crizotinib; first compound 2.53 µM
  relative viability: 0.964
Bexarotene + Crizotinib; first compound 8 µM
  relative viability: 1.02
Bexarotene + Bortezomib; first compound 0.08 µM
  relative viability: 1.07
Bexarotene + Bortezomib; first compound 0.253 µM
  relative viability: 1.1
Bexarotene + Bortezomib; first compound 0.8 µM
  relative viability: 1.04
Bexarotene + Bortezomib; first compound 2.53 µM
  relative viability: 1.02
Bexarotene + Bortezomib; first compound 8 µM
  relative viability: 1.06
Bexarotene + Alpelisib; first compound 0.08 µM
  relative viability: 1.05
Bexarotene + Alpelisib; first compound 0.253 µM
  relative viability: 1.13
Bexarotene + Alpelisib; first compound 0.8 µM
  relative viability: 1.12
Bexarotene + Alpelisib; first compound 2.53 µM
  relative viability: 1.05
Bexarotene + Alpelisib; first compound 8 µM
  relative viability: 1.05
Bexarotene + Navitoclax; first compound 0.08 µM
  relative viability: 1.05
Bexarotene + Navitoclax; first compound 0.253 µM
  relative viability: 1.07
Bexarotene + Navitoclax; first compound 0.8 µM
  relative viability: 1.06
Bexarotene + Navitoclax; first compound 2.53 µM
  relative viability: 1.09
Bexarotene + Navitoclax; first compound 8 µM
  relative viability: 1.04
